TGI data for 26 compounds are collected here from PubChem BioAssay (NCI).

Molecules are shown by their SMILES.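 Following 48 hours of exposure in 96-well plates, responses at five concentrations were used to interpolate endpoints linearly. TGI: concentration producing complete growth inhibition.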

Experiment in all cases: inhibition of tumour cell growth, NCI panel, 48 h
For test [1], the system named is UACC-257 melanoma.
Test [2] concerns SK-OV-3 ovarian.
Test [3] deals with LOX IMVI melanoma.
Test [4] has as its system SF-268 CNS.
Test [5] has as its system HS 578T breast.
The test system of test [6] is DU-145 prostate.
Test [7] deals with SK-MEL-5 melanoma.
For test [8], the system named is IGROV1 ovarian.
Test [9] has as its system OVCAR-8 ovarian.
Test [10] relates to SF-295 CNS.
The test system of test [11] is NCI/ADR-RES ovarian.

With `Cc1cccc(NC(=S)N/N=C(/c2ccccc2)c2ccccn2)c1`, the TGI in [1] came to 1.57 µM; in test [2] it was 14.1 µM; in test [3], 11.5 µM; in test [4] it was 12.6 µM; in [5] it was 76.1 µM; in test [6], 9.34 µM. Moreover, the TGI in test [7] came to 7.18 µM; in [8] it was 16.7 µM; in test [9], 15.4 µM; in test [10] it was 10.7 µM; in [11], 6.63 µM.

Consider `CCN(CC)C1=Nc2ccccc2-n2c(C)cnc2C1`, for which the TGI in [1], in [2], in [3], in test [4], in test [5] and in [6] was over 100 µM throughout. The TGI in test [7], in test [8], in [9], in [10] and in [11] was over 100 µM throughout.

With `CCOP(C)(=O)C(Nc1ccc(F)cc1)c1ccc(F)cc1` (stereo not drawn), the TGI in test [1], in [2], in test [3], in [4], in test [5] and in [6] was over 100 µM throughout. In addition, the TGI in test [7], in test [8], in test [9], in [10] and in test [11] was over 100 µM throughout.

As to `CC(C)=CCC[C@H](C)[C@H]1CC[C@@H](C)c2cc(O)c(C)cc21`, the TGI was 31.7 µM in test [1]; 35.4 µM in test [2]; 32 µM in test [3]; 31.2 µM in test [4]; 37.8 µM in test [5]; 37.9 µM in test [6]. Moreover, the TGI came out at 30.4 µM in test [7]; 31.4 µM in test [8]; 35.6 µM in test [9]; 32.2 µM in test [10]; 36.7 µM in test [11].

Regarding `CC1(C)OC(=S)N(c2ccccc2)C12C=Cc1cc3ccccc3cc1O2` (stereo not drawn), the TGI in [1], in test [2], in test [3], in test [4], in test [5] and in [6] was over 100 µM in each case. The TGI in test [7], in [8], in test [9], in test [10] and in [11] was over 100 µM throughout.

With `Cn1cnc([N+](=O)[O-])c1Sc1nc(N)nc2c1ncn2Cc1ccccc1`, the TGI was 30.1 µM in test [1]; 57 µM in test [2]; 65.4 µM in [3]; 44.6 µM in test [4]; 86.5 µM in test [5]; over 100 µM in test [6]. Besides, the TGI in [7] is 41.2 µM; in test [8], over 100 µM; in test [9] it was 72.2 µM; in [10], over 100 µM; in test [11], over 100 µM.

For `Cc1ccc(C)c(NC(=O)C(Cc2c[nH]c3ccccc23)NC(=O)OCc2ccccc2)c1` (stereo not drawn), the TGI in [1] is 34.3 µM; in test [2], 50.1 µM; in [3], over 100 µM; in test [4], over 100 µM; in [5] it was over 100 µM; in test [6], 33.7 µM. The TGI in test [7] is 34.5 µM; in test [8] it was 70.8 µM; in test [9] it was over 100 µM; in test [10] it was over 100 µM; in [11], 33 µM.

For the compound `CC1Cc2cc(O)ccc2C2[C@@H]1C1CC[C@H](O)[C@@]1(C)C[C@@H]2O[N+](=O)[O-]` (stereo partly drawn), the TGI in test [1] is 72.3 µM; in [2] it was over 100 µM; in [3], 32.7 µM; in test [4] it was over 93.1 µM; in test [5] it was 22.3 µM; in test [6] it was 76.3 µM. For the same compound, the TGI in [7] was 17.8 µM; in [8], over 100 µM; in test [9] it was 74 µM; in test [10], 39.2 µM; in test [11], 38.9 µM.

Turning to `CCN(CC)c1nc(N(C)C)c2cc(OC)ccc2n1`, the TGI in test [1] is 81.3 µM; in test [3], over 100 µM; in test [4], 91.8 µM; in test [5] it was over 100 µM; in test [6], over 100 µM; in test [7], 34.2 µM. Besides, the TGI in [8], in test [9], in [10] and in test [11] was over 100 µM throughout.

Consider `Cc1nc2c(ncn2CCO)c(=O)[nH]1`, for which the TGI in [1], in test [2], in [3], in [4], in [5] and in test [6] was over 100 µM in each case. Also, the TGI in [7], in test [8], in [9], in test [10] and in [11] was over 100 µM in each case.

Turning to `O=C1NN(c2ccccc2)C(=O)C2C3c4ccccc4C(c4ccccc43)C12` (stereo not drawn), the TGI in test [1], in test [2], in [3], in test [4], in test [5] and in [6] was over 100 µM in each case. The TGI in test [7], in [8], in [9], in [10] and in [11] was over 100 µM throughout.

Regarding `CC(=O)OC1COC(Nn2c(=O)[nH]c3ccccc3c2=O)C(OC(C)=O)C1OC(C)=O` (stereo not drawn), the TGI in test [1], in [2], in [3], in test [4], in test [5] and in test [6] was over 100 µM each time. Also, the TGI in test [7], in test [8], in test [9], in test [10] and in [11] was over 100 µM throughout.

In the case of `Cc1cc(-c2nc3cc(F)c(F)cc3s2)ccc1N`, the TGI in test [1], in [2], in test [3], in [4], in test [5] and in test [6] was over 100 µM in each case. Also, the TGI in test [7] was over 100 µM; in test [9], over 100 µM; in test [10], over 82.9 µM; in [11], over 100 µM.

Take `CN1CCN(c2ccc(-n3cc(C(=O)O)c(=O)c4cc(F)c(N5CCN(C)CC5)cc43)nc2)CC1`: the TGI in test [1], in test [2], in test [3], in [4], in test [5] and in test [6] was over 100 µM throughout. For the same compound, the TGI in test [8], in test [9], in test [10] and in test [11] was over 100 µM in each case.

As to `C[C@]12CCC(=O)C=C1CC[C@@H]1C2CC[C@]2(C)Nc3c(ncn3-c3ccc(F)cc3)CC12` (stereo partly drawn), the TGI in test [1] was 66.2 µM; in test [2], over 100 µM; in test [4] it was over 100 µM; in test [5], 71 µM; in test [6], over 100 µM; in test [7], 29.7 µM. Also, the TGI in test [8] was over 100 µM; in [9] it was over 100 µM; in [10] it was 45.3 µM.

Take `C=C(C(=O)O)[C@@H]1C[C@@H]2O[C@H]1CC(C)=CCC/C(C)=C/CC[C@@]2(C)O`: the TGI in test [1], in test [3], in test [4], in [5], in [6] and in [7] was over 100 µM each time. In addition, the TGI in test [8], in test [9], in test [10] and in test [11] was over 100 µM throughout.

Take `Cc1n[nH]c(=O)n1N1C(=O)c2ccccc2C1=O`: the TGI in test [1], in test [3], in test [5], in test [6], in [7] and in test [8] was over 100 µM throughout. The TGI in [9], in [10] and in test [11] was over 100 µM each time.

For the compound `COC1(C)C=NCC(C)(C)NC(=O)C(C)(OC)C=NCC(C)(C)NC1=O` (stereo not drawn), the TGI in test [1], in [2], in test [4], in [5], in [6] and in test [7] was over 10 µM in each case. For the same compound, the TGI in test [8], in [9], in [10] and in test [11] was over 10 µM in each case.

As to `Cc1nn(C)c2c1C(=O)N(C)CC(=O)N2C`, the TGI in test [1], in [2], in [4], in test [5], in [6] and in test [7] was over 100 µM throughout. For the same compound, the TGI in test [8], in [9] and in test [10] was over 100 µM throughout.

On to `CCc1n[nH]c(=O)n1NC(=O)/C=C\C(=O)O`, for which the TGI in [1], in [2], in [4], in test [5], in [6] and in test [7] was over 100 µM each time. The TGI in [8], in [9], in test [10] and in test [11] was over 100 µM throughout.

Take `CC1OC(OC2CC(O)(C(=O)CO)Cc3c(O)c4c(c(O)c32)C(=O)c2ccccc2C4=O)CC(N)C1O` (stereo not drawn): the TGI in test [1] came out at 0.326 µM; in [2], 0.142 µM; in test [3] it was 0.029 µM; in test [4], 0.549 µM; in test [5], 0.113 µM; in test [6] it was 0.0836 µM. Further, the TGI in test [7] was 0.0523 µM; in [8], 3.52 µM; in test [9], 12.4 µM; in test [10], 0.0818 µM.

`CC(=O)OCc1cn(S(=O)(=O)c2ccc(C)cc2)cn1`: the TGI in test [2] was over 100 µM; in test [3] it was over 100 µM; in [4], 97.5 µM; in test [5], over 100 µM; in [6], over 100 µM; in [7], over 100 µM. The TGI in test [8], in [9], in test [10] and in test [11] was over 100 µM each time.

`CC[C@@]1(O)C(=O)OCc2c1cc1n(c2=O)Cc2c-1nc1ccccc1c2/C=N\NC(=O)C(C)N` (stereo partly drawn): the TGI is 28.7 µM in test [1]; 0.229 µM in [3]; over 100 µM in test [4]; over 100 µM in test [5]; 0.398 µM in [6]; 1.78 µM in test [7]. Moreover, the TGI was over 100 µM in [8], 5.26 µM in test [9], 8.14 µM in [10] and 4.26 µM in test [11].

Consider `CCCCP(CCCC)(CCCC)=C(C(=O)OC)C(C(=O)OC)=C1SC(C(=O)OC)=C(C(=O)OC)S1`, for which the TGI is 37.3 µM in test [1]; 75.8 µM in test [2]; 28.5 µM in test [3]; over 100 µM in [4]; 43.7 µM in test [5]; over 100 µM in test [6]. The TGI in test [7] amounted to 29.7 µM; in test [8], 23.8 µM; in test [9] it was 48.8 µM; in test [10], 36.3 µM.

On to `C/C(=N\Nc1nc2ccccc2o1)c1ccncn1`, for which the TGI in [1] was over 27.5 µM; in [2], 17.4 µM; in [3], over 37.1 µM; in test [4] it was over 53.8 µM; in [5], 27.1 µM; in test [7], over 81.6 µM. Besides, the TGI in [8] was 30.9 µM; in [9], 35.7 µM; in test [10], over 100 µM; in test [11] it was 0.84 µM.

`COC(=O)[C@@H]1C[C@]2(CC=C(C)C)c3ccccc3N(S(=O)(=O)c3ccccc3)[C@@H]2N1C(=O)OC`: the TGI in test [1] was 51.6 µM; in test [2] it was over 100 µM; in test [3], over 100 µM; in test [4], 99.3 µM; in [5], 66.9 µM; in [6], over 100 µM. The TGI in test [7] was 26 µM; in [9], 86.5 µM; in [10], over 100 µM; in [11], 83.1 µM.
